Laboratory results reported in paper PMC4537050, “A long pentraxin-3-derived pentapeptide for the therapy of FGF8b-driven steroid hormone-regulated cancers” (Oncotarget, 2015).

Key:
FGF23 = target: T1, FGF23 (Homo sapiens, UniProt Q9GZV9); assay: SPR analysis of ARPCA on immobilized FGF23; format: binding; conditions: data not shown
T1 sequence (Q9GZV9 25-251): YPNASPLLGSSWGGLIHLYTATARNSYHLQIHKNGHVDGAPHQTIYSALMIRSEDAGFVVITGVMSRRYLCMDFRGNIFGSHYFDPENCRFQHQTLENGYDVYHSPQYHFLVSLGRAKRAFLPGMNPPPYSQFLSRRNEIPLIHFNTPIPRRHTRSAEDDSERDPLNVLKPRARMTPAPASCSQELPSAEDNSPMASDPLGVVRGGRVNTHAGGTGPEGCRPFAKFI

TRAMP-C2 alginate plugs = assay: Murine s.c. alginate implant assay, TRAMP-C2 cells; format: in vivo, C57BL/6 male mice; conditions: i.p. at 100 mg/kg every other day
Description: Eightweek-old athymic Nu/Nu or C57BL/6 male mice were injected s.c. with 450 μl of 3% (w/v) sodium alginate solution (alginic acid dissolved in LPS-free PBS) containing 5×10^6 S115 or 8×10^6 TRAMP-C2 cells, respectively. Mice were treated i.p. with ARPCA or ARPVA (100 mg/kg) on day 7, 9, 11 and 13 after implant. On day 14, alginate gels were harvested, weighted, embedded in OCT-compound and immediately frozen to be processed for histological analysis. For immunofluorescence stainings, sections (5 μm thick) were obtained with a cryostat microtome, air dried and fixed with acetone (for 5 min at 4°C). After blocking with 1% BSA (Bovine Serum Albumin) in PBS for 10 minutes, sections were incubated with primary antibodies, rabbit anti-FGFR1 (Santa Cruz Biotechnology), rabbit anti-phospho FGFR1 (Santa Cruz Biotechnology), Ki67 (Dako, Milano, Italy, EU) or CD31 (BD Biosciences Pharmingen, San Diego, CA, USA). After washing with PBS containing 0.05% Tween 20, sections were incubated with the appropriate Alexa Fluor 488 or Alexa Fluor 594-conjugated secondary antibody (Invitrogen). After mounting in a drop of anti-bleaching mounting medium containing DAPI (Vectashield, Vector Laboratories, Burlingame, CA, USA), sections were examined under a Zeiss Fluorescence Axiovert 200M microscope (Carl Zeiss).

[1] = system: S115 cells grafted onto the chick embryo CAM; assay: CAM assay with DHT-treated S115 cell grafts; format: in vivo; conditions: 2.5 × 10^4 cells/embryo; ARPCA 80 or 140 pmoles/embryo, ARPVA 140 pmoles/embryo; day 14
Description: Alginate plugs containing vehicle, FGF8b (4.5 pmoles/embryo), VEGF-A (4.5 pmoles/embryo) or S115 cells (2.5×10^4/embryo) in the absence or presence of ARPCA (80 or 140 pmoles/embryo) or ARPVA (140 pmoles/embryo) were placed on the CAM of fertilized white leghorn chicken eggs at day 11 of incubation. At day 14, newly formed blood microvessels converging toward the implant were counted by two observers in a double-blind fashion at 5x magnification under a stereomicroscope (STEMI-SR, x2/0.12; Zeiss) as described.

FGF3 = target: T2, FGF3 (Homo sapiens, UniProt P11487); assay: SPR analysis of FGF/ARPCA interaction, FGF3; format: binding; conditions: immobilized FGF3
T2 sequence (P11487 18-239): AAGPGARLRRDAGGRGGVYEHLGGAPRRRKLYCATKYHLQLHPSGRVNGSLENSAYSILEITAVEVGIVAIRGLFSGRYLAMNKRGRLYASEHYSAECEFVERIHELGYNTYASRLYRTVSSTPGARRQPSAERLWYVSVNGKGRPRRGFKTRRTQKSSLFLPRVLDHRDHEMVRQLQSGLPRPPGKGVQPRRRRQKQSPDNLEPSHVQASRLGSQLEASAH

FGF9 = FGF9 (Homo sapiens, UniProt P31371); assay: SPR analysis of FGF/ARPCA interaction, FGF9; format: binding; conditions: immobilized FGF9
[2] = mouse, in vivo, ip, 100 mg/kg
Description: Eight week-old C57BL/6 mice were treated i.p. with 100 mg/kg of ARPCA every other day for two weeks. During this period, animals were weighted for body weight variation analysis. At the end of treatment, whole blood and serum were harvested and analysed for blood components, biochemical serum parameters and circulating levels of FGF23. The serum levels of FGF23 were assessed by ELISA (Uscn Life Science Inc., Wuhan, PRC, Asia) according to manufacturer's instructions. Untreated mice were used as reference/control.

FGF4 = target: T3, FGF4 (Homo sapiens, UniProt P08620); assay: SPR analysis of FGF/ARPCA interaction, FGF4; format: binding; conditions: immobilized FGF4
T3 sequence (P08620 31-206): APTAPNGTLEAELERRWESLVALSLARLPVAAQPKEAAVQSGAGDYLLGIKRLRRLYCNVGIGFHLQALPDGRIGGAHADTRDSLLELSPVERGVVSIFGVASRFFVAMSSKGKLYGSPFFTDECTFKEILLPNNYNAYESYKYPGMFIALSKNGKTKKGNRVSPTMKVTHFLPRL

TRAMP-C2 tumor grafts = assay: In vivo tumor therapy study, TRAMP-C2 tumors; design: species or system C57BL/6 male mice; conditions: s.c. TRAMP-C2 cells, i.p. 100 mg/kg every other day
Description: Eight week old C57BL/6 male mice were injected s.c. with 8×10^6 TRAMP-C2 cells, and eight week old athymic Nu/Nu male mice were injected s.c. with 5×10^6 S115 cells. All injections were performed in 200 μl total volume of PBS into the dorsolateral flank. When tumors were palpable treatment was performed every other day by i.p. injection of ARPCA, ARPVA (both at 100 mg/kg) or vehicle (PBS) in 100 μl final volume. Tumors were measured in two dimensions and tumor volume was calculated according to the formula V=(D × d^2)/2, where D and d are the major and minor perpendicular tumor diameters, respectively. At the end of the experimental procedure tumors were harvested, weighted and photographed.

HUVEC spheroids = assay: Endothelial cell sprouting assay (HUVEC spheroids in fibrin gel); format: cell-based, human; conditions: 60 μM peptide, 24 h
Description: HUVEC spheroid aggregates were prepared in 20% methylcellulose medium, embedded in fibrin gel, and stimulated with FGF8b or VEGF-A (both at 30 ng/ml) plus 5% FBS in the absence or presence of 60 μM ARPCA or ARPVA. Formation of radially growing cell sprouts was observed during the next 24 h, photographed at 200x magnification using an Axiovert 200M microscope (Carl Zeiss, Milan, Italy, EU) and counted.

FGF10 = target: T4, FGF10 (Homo sapiens, UniProt O15520); assay: SPR analysis of FGF/ARPCA interaction, FGF10; format: binding; conditions: immobilized FGF10
T4 sequence (O15520 38-208): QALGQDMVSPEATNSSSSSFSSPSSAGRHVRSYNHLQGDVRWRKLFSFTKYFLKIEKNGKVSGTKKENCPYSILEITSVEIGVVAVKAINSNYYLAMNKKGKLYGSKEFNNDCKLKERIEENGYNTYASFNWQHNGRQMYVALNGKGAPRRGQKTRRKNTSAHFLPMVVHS

Ac-ARPCA-NH2 [ARPCA, Ac-ARPCA-NH2]
interaction with immobilized FGF23 (FGF23): did not show any interaction
CD31-positive tumor vascularization in TRAMP-C2 alginate plugs (TRAMP-C2 alginate plugs): decrease
FGFR1 activation in TRAMP-C2 alginate plugs (TRAMP-C2 alginate plugs): impaired FGFR1 activation
tumor cell proliferation rate (Ki67 immunostaining) in TRAMP-C2 alginate plugs (TRAMP-C2 alginate plugs): decrease
neovascular response elicited by DHT-pretreated S115 cells on the CAM [1]: abolished
Kd, FGF3 (FGF3): n.b.
Kd, FGF9 (FGF9): n.b.
systemic toxic effect in treated animals [2]: absence of any systemic toxic effect
Kd, FGF4 (FGF4): n.b.
growth of TRAMP-C2 tumor grafts, long-term assay (TRAMP-C2 tumor grafts): inhibited the growth of TRAMP-C2 tumor grafts
sprouting activity exerted by FGF8b on HUVEC spheroids (HUVEC spheroids; 30 ng/ml FGF8b): specifically prevents the pro-angiogenic/sprouting activity
effect on the angiogenic potential of VEGF-A on HUVEC spheroids (HUVEC spheroids; 30 ng/ml VEGF-A): no effect
Kd, FGF10 (FGF10): n.b.
